According to patent US9868784B2, “Antibodies against the S100P protein for the treatment and diagnosis of cancer” (LYKERA BIOMED SA, priority 2011, dated 2018):
Values joined by “and” are separate entries in the source; they are usually repeats but may differ in a detail not shown here. Equal entries are not always repeated.

Key:
[1] = tested on: human pancreatic BxPC3 tumors; assay: Orthotopic BxPC3-luc pancreatic tumor model, tumor progression and metastases (TMPN score, bioluminescence); type: in vivo, nude mice; set-up: key to Nodes score / Tumor score / Organ Metastases, Liver score / Organ Metastases, Lung score / Peritoneal Metastases, Diaphragm score / Peritoneal Metastases, Kidney score / Peritoneal Metastases, Adrenals score / Peritoneal Metastases, Intestine score / Peritoneal Metastases, Peritoneum score: TMPN category scores per Table 2 (modified Hennig 2005); key to Total Score: product of T, M, P and N scores per animal; details: individual animal, end of experiment
Experimental: The antitumorigenic and antimetastatic capability of the monoclonal antibodies 3F8 and 2H8 against S100P was assessed in an orthotopic tumor model using the human adenopancreatic BxPC3 tumor cell line stably expressing a lentiviral luciferase reporter gene.
BxPC3-luc cell line in exponential growth were harvested with trypsin-EDTA (0.05%/0.02%) (Invitrogen), washed, and examined for viability by trypan blue dye exclusion. Viability was greater than 95%. For primary tumor growth, cells (5×105 in 0.1 mL DMEM high glucose) were injected into the pancreas of 5 nude mice.
Four weeks after cell injection, when tumors became established (300-350 mm3), two animals were killed, tumors were obtained, sliced in 5 mm3 pieces approximately and implanted in 15 new mice. Mice were divided into 3 groups of five animals each one.
Tumor growth and metastasis were followed by bioluminescent imaging, palpation of animals and the examination of endpoint criteria of treated animals (occurrence of ascitic fluid and body weight loss).
Mice were treated either with cromolyn (reference compound that is known to bind to S100P and block its extracellular activity, Arumugam T. et al. 2006. J. Natl. Cancer Inst. 98(24):1806-18), daily (5 mg/Kg body weight by ip injection) or with our antibodies against S100P (3F8 and 2H8), three times per week at 25 mg/Kg by ip injection, starting the treatment 24 hours after tumor implantation. At the end of the experiment (treatment of 30 days) animals were killed, pancreatic tumors were surgically removed, weighted and an staging and scoring system of peritoneal tumors, pancreatic tumors, lymph node metastases, organ metastases, and ascites was developed and recorded according to our TMPN scoring system (Table 2) modified from Hennig R. et al. 2005. Neoplasia, 7(4):417-425 to evaluate tumor progression. Scores from each category were multiplied with each other because patterns in medicine follow multiplicative, rather than additive, rules.
Scores for the primary tumor (T), organ metastases (M), peritoneal metastases (P), and lymph node metastases (N) were multiplied to calculate the total tumor score for each animal. Score P4 value is the sum of the corresponding P0, P1, P2, P3 (P0/1/2/3) plus an additional value of 3 for metastasis presence in the diaphragm, 3 for kidney, 3 for intestine and 3 for adrenal glands.
Bioluminescence imaging was conducted using a cryogenically cooled IVIS 100 imaging system coupled to a data acquisition computer running Living Image Software (Xenogen Corp). Before imaging, mice were placed in an acrylic chamber anesthetized with 2.5% isofluorane-air mixture, and injected intraperitoneally with 15 mg/mL of luciferin potassium salt in PBS at a dose of 150 mg/Kg body weight. At the end of experiment, after the primary tumors were removed, cancer cell dissemination and metastasis were visualized using IVIS imaging, and metastatic colonies were counted and measured (photons/second).
Comparisons between groups were made using the Kruskall-Wallis ANOVA on ranks as a nonparametric test. Differences for which P value was less than 0.05 were considered statistically significant.

[2] = tested on: HT1080 human fibrosarcoma cell line; assay: HT1080 cell survival by MTT method
Experimental: Briefly, HT1080 cells (1×10^4 cells/well) were plated onto 96-well cell culture plates in 50 μl of DMEM medium. Twenty-for hours later, 50 μl of medium with doxorubicin (240 nM or 1 μM) alone or in combination with either S100P or S100P combined with the antibodies (see FIG. 6) were added to each well and were cultured for 72 hours. Then 10 μl of a MTT solution (5 mg/ml PBS) was added to each well and after 4 hours cells were lysed, formazan product was solubilised with 100 μl of extraction buffer (15% SDS in 50% N,N-dimethylformamide pH 4.7) and colorimetric result was measured at 570 nm using a multi-well scanning spectrophotometer 5 hours after solubilization.

[3] = tested on: BxPC3 pancreatic adenocarcinoma tumor cells; assay: Proliferation of BxPC3 tumor cells induced by S100P; type: cell-based, human; details: S100P 100 nM, 48 hours
Experimental: The proliferation studies on the BxPC3 line were analyzed using the Cell Proliferation ELISA Biotrak™ System kit (GE Healthcare) following the manufacturer's instructions with some modifications. Three thousand cells were seeded in 50 μl of RPMI 1640 culture medium supplemented with 3% FCS in each well. The recombinant S100P protein (100 nM) alone or in combination with the antibodies was added to the cells in the same seeding medium to test the proliferative or inhibitory capacity thereof, respectively. To test the inhibitory effect of the 5D7, 4B12, 3E3, 7F1, 9F3, 6F1, 1A5, 3F8 and 2H8 monoclonal antibodies, a concentration of 500 nM of each antibody was incubated for 2 hours at 37° C. with the recombinant S100P protein before being added to the culture. After 48 hours at 37° C., the proliferation was determined. The two-tailed Mann-Whitney nonparametric test was used to compare the groups. A p value <0.05 was taken for the values to be statistically significant.

O=C(O)c1cc(=O)c2c(OCC(O)COc3cccc4oc(C(=O)O)cc(=O)c34)cccc2o1 [Cromolyn, cromolyn]
Total Score ([1]; T x M x P x N scores multiplied): 2600 and 1000 (2×) and 1300 and 1750 (2×)
Tumor score ([1]; TMPN score (Table 2), 30 days treatment, antibodies 25 mg/Kg ip three times per week, cromolyn 5 mg/Kg ip daily): 4 (4×) and 5 (2×)
Nodes score ([1]; TMPN score): 5
Organ Metastases, Liver score ([1]; TMPN score): 5
Organ Metastases, Lung score ([1]; TMPN score): 5 and 0 (5×)
Peritoneal Metastases, Adrenals score ([1]; TMPN score): 3 and 0 (5×)
Peritoneal Metastases, Diaphragm score ([1]; TMPN score): 0 and 3 (5×)
Peritoneal Metastases, Intestine score ([1]; TMPN score): 3
Peritoneal Metastases, Kidney score ([1]; TMPN score): 3 (4×) and 0 (2×)
Peritoneal Metastases, Peritoneum score ([1]; TMPN score): 4 (4×) and 5 (2×)

COc1cccc2c1C(=O)c1c(O)c3c(c(O)c1C2=O)C[C@@](O)(C(=O)CO)C[C@@H]3O[C@H]1C[C@H](N)[C@H](O)[C@H](C)O1 [Doxorubicin, doxorubicin]
IC50 ([2]; Homo sapiens, HT-1080, 72 h): 240 nM
EC50 ([2]; Homo sapiens, HT-1080, read-out: Toxicity EC50): 240 nM

B1: S100P: human recombinant S100P protein (SEQ ID NO: 2) expressed in E. coli, used as stimulus (protein)
chain: GSHMTELETAMGMIIDVFSRYSGSEGSTQTLTKGELKVLMEKELPGFLQSGKDKDAVDKLLKDLDANGDAQVDFSEFIVFVAAITSACHKYFEKAGLK
modifications: Human
proliferation increase compared to cells not treated with S100P [3]: ~80%
increase of growing respect to the non treated HT1080 cells ([2]; S100P 500 nM, doxorubicin 240 nM, 72 h): approximately 40%
